In US7872036B2, “3-triazolylphenyl sulfide derivative and insecticide, miticide and nematicide containing it as an active ingredient” (Kumiai Chemical Industry Co., Ltd., priority 2004, dated 2011):

How the values were obtained:
[1] = test system: two-spotted spider mites; assay: Miticidal test on two-spotted spider mites (by dipping); type: in vivo, Tetranychus urticae; design: scale not given here; settings: dipping of soybean seedlings, active ingredient 500 ppm, 25° C., 13 days
Protocol: (§1) Wettable powders were prepared in accordance with Formulation Example 2 and diluted with water to an active ingredient concentration of 500 ppm. Soybean seedlings which had been inoculated with imago two-spotted spider mites were dipped in the resulting solutions and dried in air. The treated seedlings were placed in a thermostatic chamber at 25° C. for 13 days, and the mite survivors were counted for calculation of the miticidal value by using Equation 2. The test was carried out by one series system.

[2] = test system: two-spotted spider mites; assay: Miticidal test on two-spotted spider mites (by soil drenching); type: in vivo, Tetranychus urticae; design: scale not given here; settings: active ingredient 100 ppm, 5 ml per 100 g soil, 25° C., 13 days
Protocol: as §1, with “100” for “500”, “100 g of the soil in cups with soybean” for “Soybean”, “drenched with 5 ml of” for “dipped in”, “solutions.” for “solutions and dried in air.”, “[…]” for “thermostatic”, “2.” for “2. The test was carried out by one series system.”

[3] = test system: brown planthoppers; assay: Insecticidal test on brown planthoppers; type: in vivo, Nilaparvata lugens; settings: active ingredient 500 ppm, germinating rice immersed, 4th-instar larvae, 25° C., 6 days
Protocol: Wettable powders were prepared in accordance with Formulation Example 2 and diluted with water to an active ingredient concentration of 500 ppm. Germinating rice was immersed in the resulting solutions and put in a plastic cup with a capacity of 60 ml. Ten 4th-instar larvae of brown planthoppers were released to the cup, and the cup was covered and placed in a thermostatic chamber at 25° C. for 6 days, and the survivors were counted for calculation of the insecticidal degree by using Equation 1. The test was carried out by one series system.

[4] = test system: southern root-knot nematodes; assay: Nemastatic test on southern root-knot nematodes; type: in vivo, Meloidogyne sp.; settings: diluted solution 20 ppm mixed 1:1 with suspension of second stage larvae, 25° C., 5 days
Protocol: Compounds of the present invention (5 parts) and Tween 20 (tradename for polyoxyethylene sorbitan monolaurate) (1 part) as a spreader were dissolved n N,N-dimethylformamide (94 parts) to prepare 5% emulsifiable concentrates of the compounds of the present invention. Distilled water was added to the emulsifiable concentrates to prepare diluted solutions having a concentration of the compounds of the present invention of 20 ppm. 0.5 ml of the diluted solutions and 0.5 ml of water suspensions containing 100 second stage larvae of southern root-knot nematodes were mixed, and the mixture were placed in a thermostatic chamber at 25° C. for 5 days, and the survivors were counted for calculation of the nemastatic degree by using Equation 3. The test was carried out by two series system.

Structure (SMILES) | Miticidal value [1] | Miticidal value [2] | Insecticidal degree (%) [3] [%] | Nemastatic degree (%) [4] [%]
CNc1nc(C(F)(F)F)nn1-c1cc([S+]([O-])CC(F)(F)F)c(C)cc1C (stereo not drawn) [Compound 147] | 100 | 100 | – | –
Cc1cc(F)c(-n2nc(SC(F)(F)F)nc2N)cc1[S+]([O-])CC(F)(F)F (stereo not drawn) [Compound 32] | 100 | 100 | 100 | –
CCc1nc(N)n(-c2cc([S+]([O-])CC(F)(F)F)c(C)cc2F)n1 (stereo not drawn) [Compound 117] | 100 | 100 | 100 | –
CC(=O)Nc1nc(C(C)(C)C)nn1-c1cc([S+]([O-])CC(F)(F)F)c(C)cc1F (stereo not drawn) [Compound 113] | 100 | 100 | 100 | –
Cc1cc(F)c(-n2nc(SC(F)(F)F)nc2NC(=O)C(F)(F)F)cc1SCC(F)(F)F [Compound 99] | 100 | 100 | 100 | –
Cc1cc(Cl)c(-n2nc(C(F)(F)F)nc2N)cc1[S+]([O-])CC(F)(F)F (stereo not drawn) [Compound 8, [5-(5-amino-3-trifluoromethyl-1,2,4-triazolyl)-4-chloro-2-methylphenyl]2,2,2-trifluoroethyl sulfoxide] | 100 | 100 | – | –
Cc1cc(F)c(-n2nc(C(F)(F)F)nc2N)cc1[S+]([O-])CC1CC1 (stereo not drawn) [Compound 4] | 100 | 100 | 90 | –
Cc1cc(F)c(-n2nc(C(F)(F)F)nc2NC(C)C)cc1[S+]([O-])CC(F)(F)F (stereo not drawn) [Compound 167] | 100 | 100 | 100 | –
N#Cc1ccc(-n2nc(C(F)(F)F)nc2N)cc1[S+]([O-])CC(F)(F)F (stereo not drawn) [Compound 121] | 100 | 100 | – | –
Cc1cc(F)c(-n2nc(C(F)(F)F)nc2NC(=O)N(C)C)cc1[S+]([O-])CC(F)(F)F (stereo not drawn) [Compound 84] | 100 | 100 | 100 | –
CCNc1nc(C(F)(F)F)nn1-c1cc([S+]([O-])CC(F)(F)F)c(C)cc1F (stereo not drawn) [Compound 60] | 100 | 100 | 100 | –
Cc1ccc(-n2nc(C(F)(F)F)nc2NC(=O)C(F)(F)F)cc1[S+]([O-])CC(F)(F)F (stereo not drawn) [Compound 153] | 100 | 100 | 100 | –
Cc1cc(F)c(-n2nc(C(F)(F)F)nc2NC(=O)C(F)(F)Cl)cc1[S+]([O-])CC(F)(F)F (racemic) [Compound 192] | 100 | 100 | 100 | –
CC(=O)Nc1nc(SCC(F)(F)F)nn1-c1cc([S+]([O-])CC(F)(F)F)c(C)cc1F (stereo not drawn) [Compound 155] | 100 | 100 | 90 | –
C#CCNc1nc(SC(F)(F)C(F)(F)F)nn1-c1cc([S+]([O-])CC(F)(F)F)c(C)cc1F (racemic) [Compound 194] | 100 | 100 | 100 | –
CNc1nc(C(F)(F)F)nn1-c1cc([S+]([O-])CC(F)(F)F)c(C)cc1Cl (stereo not drawn) [Compound 98] | 100 | 100 | – | –
Cc1cc(F)c(-n2nc(C(F)(F)F)nc2NC(=O)CCl)cc1[S+]([O-])CC(F)(F)F (racemic) [Compound 190] | 100 | 100 | 100 | –
Cc1cc(F)c(-n2nc(C#N)nc2N)cc1[S+]([O-])CC(F)(F)F (stereo not drawn) [Compound 36] | 100 | 100 | – | 100
Cc1cc(F)c(-n2nc(C(C)C)nc2N)cc1[S+]([O-])CC(F)(F)F (stereo not drawn) [Compound 111] | 100 | 100 | 100 | –
Cc1cc(F)c(-n2nc(C(C(F)(F)F)C(F)(F)F)nc2N)cc1[S+]([O-])CC(F)(F)F (racemic) [Compound 183] | 100 | 100 | – | –
Cc1cc(F)c(-n2nc(CC(C)(C)C)nc2N)cc1[S+]([O-])CC(F)(F)F (stereo not drawn) [Compound 107] | 100 | 100 | – | –
